Series [1] deals with T1, WT luciferase (Photinus pyralis, UniProt P08659).
T1 construct: The full firefly (Photinus pyralis) luciferase gene was PCR amplified from pGL3 (Promega); GST (N, cleaved yes); made in house; host or cells: E. coli JM109
In kind it is biochemical. Particulars: Table 3. How it is done:
(§1) Purified mutant luciferases were used in bioluminescence emission and burst kinetics scans. Each purified protein in 20 mM Tris pH 7.6, 0.1 mM EDTA, 1 mM TCEP and 0.4 mg/mL BSA was added to 2× substrate in 20 mM Tris pH 7.6, 0.1 mM EDTA, 8 mM MgSO4, 4 mM ATP, and 1 mM TCEP in a cuvette.
(§2) Luciferase was rapidly injected into a cuvette containing substrate, and the emission from 400-800 nm was recorded in a SPEX FluoroMax-3 fluorimeter with closed excitation slits.

The target in a further series is T2, R218K + L342A luciferase (Photinus pyralis, UniProt P08659, L342A/R218K).
T2 construct: The full firefly (Photinus pyralis) luciferase gene was PCR amplified from pGL3 (Promega); GST (N, cleaved yes); made in house; host or cells: E. coli JM109
T2 sequence (P08659 whole entry R218K/L342A): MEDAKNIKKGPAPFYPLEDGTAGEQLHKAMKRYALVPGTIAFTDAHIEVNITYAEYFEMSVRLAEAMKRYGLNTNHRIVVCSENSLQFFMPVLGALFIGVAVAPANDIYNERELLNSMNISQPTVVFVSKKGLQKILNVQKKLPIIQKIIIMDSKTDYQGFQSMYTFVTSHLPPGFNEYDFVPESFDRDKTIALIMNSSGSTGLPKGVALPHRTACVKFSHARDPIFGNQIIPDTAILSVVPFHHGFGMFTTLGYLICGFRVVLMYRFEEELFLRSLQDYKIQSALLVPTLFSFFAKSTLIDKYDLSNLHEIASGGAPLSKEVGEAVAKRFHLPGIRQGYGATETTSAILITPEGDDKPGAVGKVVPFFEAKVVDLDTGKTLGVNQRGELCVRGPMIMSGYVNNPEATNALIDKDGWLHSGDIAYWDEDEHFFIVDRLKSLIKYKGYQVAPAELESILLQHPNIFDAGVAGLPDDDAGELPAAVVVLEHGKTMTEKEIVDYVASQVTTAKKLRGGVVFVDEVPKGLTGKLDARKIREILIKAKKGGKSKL
The series is classed as biochemical. The method, then: as §1, §2

Another series concerns the target T3, R218K luciferase (Photinus pyralis, UniProt P08659, R218K).
T3 construct: The full firefly (Photinus pyralis) luciferase gene was PCR amplified from pGL3 (Promega); GST (N, cleaved yes); made in house; host or cells: E. coli JM109
The series is described as follows: Bioluminescence emission scan. In kind it is biochemical. The method, then: (§3) Purified mutant luciferases were used in bioluminescence emission and burst kinetics scans.
as §2

The target of the next series is T4, L286M + S347A luciferase (Photinus pyralis, UniProt P08659, L286M/S347A).
T4 construct: The full firefly (Photinus pyralis) luciferase gene was PCR amplified from pGL3 (Promega); GST (N, cleaved yes); made in house; host or cells: E. coli JM109
T4 sequence (P08659 whole entry L286M/S347A): as the sequence (P08659 whole entry R218K/L342A) above, with K218R, L286M, A342L, S347A counted along it
The experiment in a line: Bioluminescence emission scan. The series is classed as biochemical. How it is done:
as §3, §2

For the next series, the target named is T5, L342A luciferase (Photinus pyralis, UniProt P08659, L342A).
T5 construct: The full firefly (Photinus pyralis) luciferase gene was PCR amplified from pGL3 (Promega); GST (N, cleaved yes); made in house; host or cells: E. coli JM109
T5 sequence (P08659 whole entry L342A): as the sequence (P08659 whole entry R218K/L342A) above, with K218R counted along it
The series is described as follows: Bioluminescence emission scan. In kind it is biochemical. How it is done: as §3, §2

Series [2] has as its system Nc1ccc2nc(C3=N[C@@H](C(=O)O)CS3)sc2c1. The series is described as follows: purified protein, by the assay type. Particulars: 3 minutes post-substrate addition, pH 7.6.
The next series deals with T6, L286M mutant luciferase (Photinus pyralis, UniProt P08659, L286M).
T6 construct: The full firefly (Photinus pyralis) luciferase gene was PCR amplified from pGL3 (Promega); GST (N, cleaved yes); made in house; host or cells: E. coli JM109
T6 sequence (P08659 whole entry L286M): as the sequence (P08659 whole entry R218K/L342A) above, with K218R, L286M, A342L counted along it
The experiment in a line: Titration assay with purified protein. The series is classed as biochemical. The conditions noted are these: for Km: 3 minutes post-substrate addition, read-out: Apparent Km. The method, then:
(§4) The PCR product was cloned into the BamH1 and NotI sites of pGEX6P-1 for bacterial expression. Mutant proteins were created using the Quickchange site-directed mutagenesis kit (Stratagene). Saturating mutagenesis was performed using the used the degenerate codon NNK at sites predicted to impact or alter substrate biding including F247, T251, L286, S347, R337, R218, Q338, Y340, A313, and I351 using the degenerate codon NNK.
(§5) Luminescence assays in 96-well plates were initiated by adding 30 μL 2× substrate in 20 mM Tris pH 7.6, 0.1 mM EDTA, 8 mM MgSO4, 4 mM ATP, and 1 mM TCEP to 30 μL of 20 nM purified luciferase in 20 mM Tris pH 7.6, 0.1 mM EDTA, 1 mM TCEP and 0.4 mg/mL BSA.

In another series the target is T7, T251S mutant luciferase (Photinus pyralis, UniProt P08659, T251S).
T7 construct: The full firefly (Photinus pyralis) luciferase gene was PCR amplified from pGL3 (Promega); GST (N, cleaved yes); made in house; host or cells: E. coli JM109
T7 sequence (P08659 whole entry T251S): as the sequence (P08659 whole entry R218K/L342A) above, with K218R, T251S, A342L counted along it
The experiment in a line: Titration assay with purified protein. The series is classed as biochemical. The conditions noted are these: for Km: 3 minutes post-substrate addition, read-out: Apparent Km. How it is done:
as §4, §5

Another series has as its target T8, S347A mutant luciferase (Photinus pyralis, UniProt P08659, S347A).
T8 construct: The full firefly (Photinus pyralis) luciferase gene was PCR amplified from pGL3 (Promega); GST (N, cleaved yes); made in house; host or cells: E. coli JM109
The series is classed as biochemical. Particulars: purified protein; for Km: 3 minutes post-substrate addition, read-out: Apparent Km. The method, then: as §4, §5

For a further series, the target named is T9, R218K mutant luciferase (Photinus pyralis, UniProt P08659, R218K).
T9 construct: The full firefly (Photinus pyralis) luciferase gene was PCR amplified from pGL3 (Promega); GST (N, cleaved yes); made in house; host or cells: E. coli JM109
T9 sequence (P08659 whole entry R218K): as the sequence (P08659 whole entry R218K/L342A) above, with A342L counted along it
In kind it is biochemical. Particulars: for Apparent Vmax / Km: R218K luciferase, purified protein; for Km: 3 minutes post-substrate addition, read-out: Apparent Km. The method, then: as §4, §5

Series [3] concerns the target T1, WT luciferase. The experiment in a line: Titration assay with purified protein. In kind it is biochemical. The conditions noted are these: for Km: 3 minutes post-substrate addition, read-out: Apparent Km. How it is done:
The PCR product was cloned into the BamH1 and NotI sites of pGEX6P-1 for bacterial expression. Mutant proteins were created using the Quickchange site-directed mutagenesis kit (Stratagene). Saturating mutagenesis was performed using the used the degenerate codon NNK at sites predicted to impact or alter substrate biding including F247, T251, L286, S347, R337, R218, Q338, Y340, A313, and I351 using the degenerate codon NNK. The point mutants S347A, L286A, A348G, E311A, I351A, A313G, R337A, H245A and L342A were made independently.
Luminescence assays in 96-well plates were initiated by adding 30 μL 2× substrate in 20 mM Tris pH 7.6, 0.1 mM EDTA, 8 mM MgSO4, 4 mM ATP, and 1 mM TCEP to 30 μL of 20 nM purified luciferase in 20 mM Tris pH 7.6, 0.1 mM EDTA, 1 mM TCEP and 0.4 mg/mL BSA. Titration assays were performed 3 minutes post-substrate addition in a Turner Veritas luminometer with final substrate concentrations ranging from 0.122-250 μM or 0.244-500 μM.

Values joined by “and” are separate entries in the source; they are usually repeats but may differ in a detail not shown here. Equal entries are not always repeated. Where two headings read alike, the source gives them in different places.

T3 sequence (P08659 whole entry R218K): as the sequence (P08659 whole entry R218K/L342A) above, with A342L counted along it
T1 sequence (P08659 whole entry): as the sequence (P08659 whole entry R218K/L342A) above, with K218R, A342L counted along it
T8 sequence (P08659 whole entry S347A): as the sequence (P08659 whole entry R218K/L342A) above, with K218R, A342L, S347A counted along it

Regarding `CN1CCOc2cc3nc(C4=NC(C(=O)O)CS4)sc3cc21` (centres unmarked) [CycLuc4, 2-(8-Methyl-7,8-dihydro-6H-5-oxa-1-thia-3,8-diaza-cyclopenta[b]naphthalen-2-yl)-4,5-dihydro-thiazole-4-carboxylic acid], the “Maximum Emission Wavelength of Selected Substrate” value was found to be 607 nm at WT luciferase [1]; 616 nm on R218K + L342A luciferase; 617 nm on R218K luciferase; 602 nm on L286M + S347A luciferase; 608 nm at L342A luciferase.
The Km is the concentration of substrate that gives half-maximal velocity. Consider “L286M mutant luciferase (Photinus pyralis; L286M)”, for which the Km in [2] (other: L286M luciferase) turned out to be 4.35 ± 0.2 µM.
Turning to “R218K mutant luciferase (Photinus pyralis; R218K)”, the Km in [2] (other: R218K luciferase) was 15.2 ± 1.1 µM.
As for `O=C(O)C1CSC(c2nc3cc4c(cc3s2)NCCC4)=N1` (centres unmarked) [CycLuc7, 2-(5,6,7,8-Tetrahydro-thiazolo[4,5-g]quinolin-2-yl)-4,5-dihydro-thiazole-4-carboxylic acid], the “Maximum Emission Wavelength of Selected Substrate” value is 607 nm at WT luciferase [1]; 616 nm at R218K + L342A luciferase; 620 nm on R218K luciferase; 604 nm at L286M + S347A luciferase; 611 nm on L342A luciferase.
Consider `CN1CCc2cc3nc(C4=N[C@@H](C(=O)O)CS4)sc3cc21` [CycLuc2], for which the “Apparent Vmax” value at L286M mutant luciferase is 2.3 ± 0.02 ×10^−5 cps; on T251S mutant luciferase it was 4.8 ± 0.1 ×10^−5 cps; at S347A mutant luciferase, 7.6 ± 0.05 ×10^−5 cps; at R218K mutant luciferase it was 26 ± 0.3 ×10^−5 cps; at WT luciferase [3] it was 1.3 ± 0.02 ×10^−5 cps. For the same molecule, the Km was 0.1 ± 0.01 µM on L286M mutant luciferase; 0.13 ± 0.02 µM at T251S mutant luciferase; 0.11 ± 0.005 µM at S347A mutant luciferase; 0.3 µM and 0.27 µM at R218K mutant luciferase. Moreover, on R218K mutant luciferase (R218K mutant relative to wild-type luciferase), the “improvement in the maximal sustained emission” value was 20 fold. Also, the “Maximum Emission Wavelength of Selected Substrate” value was found to be 609 nm at WT luciferase [1]; 617 nm on R218K + L342A luciferase; 621 nm on R218K luciferase; 619 nm on R218K luciferase (listed as Cyc2); 608 nm on L286M + S347A luciferase; 611 nm at L342A luciferase.
With `CCCO` [Propanol], the “Maximum Emission Wavelength of Selected Substrate” value at WT luciferase [1] is reported as 608 nm; at R218K + L342A luciferase, 609 nm; at R218K luciferase it was 609 nm; at L286M + S347A luciferase it was 593 nm; on L342A luciferase, 607 nm.
Turning to “T251S mutant luciferase (Photinus pyralis; T251S)”, the Michaelis constant (Km) in series [2] (other: T251S luciferase) was determined as 17.3 ± 0.3 µM.
“S347A mutant luciferase (Photinus pyralis; S347A)”: the Km in [2] (other: S347A luciferase) is 31.0 ± 0.4 µM.
Consider `CC1=CC(C)(C)N(C)c2cc3sc(C4=NC(C(=O)O)CS4)nc3cc21` (centres unmarked) [CycLuc6, 2-(5,6,6,8-Tetramethyl-5,6-dihydro-thiazolo[4,5-g]quinolin-2-yl)-4,5-dihydro-thiazole-4-carboxylic acid], for which the “Maximum Emission Wavelength of Selected Substrate” value at WT luciferase [1] was 636 nm; at R218K + L342A luciferase, 635 nm; on R218K luciferase, 637 nm; at L286M + S347A luciferase it was 628 nm; on L342A luciferase it was 639 nm.
Taken in the same sequence, the figures for `CC1=CC(C)(C)Nc2cc3sc(C4=NC(C(=O)O)CS4)nc3cc21` (centres unmarked) [CycLuc5, 2-(6,6,8-Trimethyl-5,6-dihydro-thiazolo[4,5-g]quinolin-2-yl)-4,5-dihydro-thiazole-4-carboxylic acid] were 637 nm, 633 nm, 635 nm, 631 nm and 631 nm.
Regarding `CN(C)c1ccc2nc(C3=NC(C(=O)O)CS3)sc2c1` (centres unmarked) [6′-Me2NLH2], the “Apparent Vmax” value is reported as 1.3 ± 0.01 ×10^−5 cps on L286M mutant luciferase; 1.6 ± 0.02 ×10^−5 cps on T251S mutant luciferase; 2.1 ± 0.02 ×10^−5 cps at S347A mutant luciferase; 5 ± 0.1 ×10^−5 cps on R218K mutant luciferase; 0.5 ± 0.003 ×10^−5 cps on WT luciferase [3]. In addition, the Km on L286M mutant luciferase was determined as 0.08 ± 0.005 µM; on T251S mutant luciferase it was 0.3 ± 0.02 µM; on S347A mutant luciferase it was 0.24 ± 0.014 µM; on R218K mutant luciferase, 0.35 ± 0.04 µM; at WT luciferase [3], 0.025 ± 0.003 µM. For the same molecule, the “Maximum Emission Wavelength of Selected Substrate” value on WT luciferase [1] is recorded as 619 nm; on R218K + L342A luciferase it was 628 nm; on R218K luciferase, 624 nm; at L286M + S347A luciferase it was 608 nm; on L342A luciferase, 619 nm.
Regarding `CN1CCCc2cc3nc(C4=NC(C(=O)O)CS4)sc3cc21` (centres unmarked) [CycLuc8, 2-(5-Methyl-5,6,7,8-tetrahydro-thiazolo[4,5-g]quinolin-2-yl)-4,5-dihydro-thiazole-4-carboxylic acid], the “Maximum Emission Wavelength of Selected Substrate” value on WT luciferase [1] turned out to be 610 nm; on R218K + L342A luciferase, 628 nm; on R218K luciferase, 632 nm; at L286M + S347A luciferase it was 605 nm; at L342A luciferase, 614 nm.
As for `CNc1ccc2nc(C3=NC(C(=O)O)CS3)sc2c1` (centres unmarked) [6′-MeNHLH2, Monomethylaminoluciferin], the “Apparent Vmax” value on L286M mutant luciferase is 7 ± 0.05 ×10^−5 cps; on T251S mutant luciferase it was 8 ± 0.1 ×10^−5 cps; at S347A mutant luciferase, 16 ± 0.2 ×10^−5 cps; at R218K mutant luciferase, 38 ± 0.5 ×10^−5 cps; on WT luciferase [3], 3 ± 0.02 ×10^−5 cps. The Km at L286M mutant luciferase is 0.08 ± 0.005 µM; at T251S mutant luciferase it was 0.27 ± 0.02 µM; on S347A mutant luciferase it was 0.47 ± 0.03 µM; at R218K mutant luciferase it was 0.45 ± 0.04 µM; on WT luciferase [3] it was 0.06 ± 0.004 µM. Also, the “Maximum Emission Wavelength of Selected Substrate” value on WT luciferase [1] was found to be 608 nm; at R218K + L342A luciferase it was 612 nm; at R218K luciferase, 610 nm; on L286M + S347A luciferase, 599 nm; at L342A luciferase it was 611 nm.

Source of the values: patent US9587266B2, “Mutant luciferases” (University of Massachusetts, priority 2011, dated 2017).
